Experimental data as given in patent US20090182031A1, “Reduction of Hair Growth” (The Gillette Company, a Delaware corporation, priority 2004, published 2009).

System: human hair follicles
Assay: Human hair follicle growth assay
Format: cell-based
Conditions: for % Reduction (hair growth): versus control
Text: Human skin was obtained from a plastic surgeon as a by-product of face-lift procedures. The skin samples generally consisted of haired and non-haired regions taken from the area of the face. Immediately after removal, the skin was placed in Williams E medium containing antibiotics, and kept refrigerated. The Williams E medium was commercially obtained (Life Technologies, Gaithersburg, Md.), and has been formulated with essential nutrients for maintaining viability of hair follicle in an in-vitro environment.
Human hair follicles in growth phase (anagen) were isolated from face-lift tissue under a dissecting scope using a scalpel and watchmakers forceps. The skin was sliced into thin strips exposing 2-3 rows of follicles that could readily be dissected. Follicles were placed into 0.5 ml Williams E medium supplemented with 2 mM L-glutamine, 10 ug/ml insulin, 10 ng/ml hydrocortisone, 100 units penicillin, 0.1 mg/ml streptomycin and 0.25 μg/ml amphotericin B. The follicles were incubated in 24 well plates (1 follicle/well) at 37° C. in an atmosphere of 5% CO2 and 95% air. Hair follicle images were taken in the 24-well plates under the dissecting scope under a power of 20×. Hair follicle lengths were measured on day 0 (day follicles were placed in culture) and again on day 6-7. In this system follicles appear to fully differentiate into a hair fiber and increase in length at a rate similar to the human, in vivo, rate of about 0.3 mm/day. For testing inhibitors of heat shock proteins, the inhibitors or anti-HSP antibody were included in the culture medium from time 0 and remained in the medium throughout the course of the experiment.

For `O=CN1CCC(=Cc2ccc3c(c2)OCO3)C1=O` [KNK 437, 1-Pyrrolidinecarboxaldehyde, 3-(1,3-benzodioxol-5-ylmethylene)-2-oxo-(9CI)], the “% Reduction (hair growth)” value (10 μM, day 0 to day 5) was 57%, the “Length Increase (mm)” value (10 μM, follicle length day 5 minus day 0) was 0.75 ± 0.13 mm and the “% Reduction (hair growth)” value (50 μM, day 0 to day 5) was 80%. The “Length Increase (mm)” value (50 μM, follicle length day 5 minus day 0) was 0.35 ± 0.12 mm.
`COC1=C2C[C@@H](C)C[C@H](OC)[C@H](O)[C@@H](C)/C=C(\C)[C@H](OC(N)=O)[C@@H](OC)/C=C\C=C(/C)C(=O)NC(=CC1=O)C2=O` [Geldanamycin, 2-Azabicyclo[16.3.1]docosa-4,6,10,18,21-pentaene-3,20,22-trione, 9,13-dihydroxy-8,14,19-trimethoxy-4,10,12,16-tetramethyl-, 9-carbamate (8CI)] was tested, and the “% Reduction (hair growth)” value (0.1 μM, day 0 to day 6) was 52%, the “Length Increase (mm)” value (0.1 μM, follicle length day 6 minus day 0) was 0.55 ± 0.13 mm and the “% Reduction (hair growth)” value (1 μM, day 0 to day 6) was 74%. The “Length Increase (mm)” value (1 μM, follicle length day 6 minus day 0) was 0.30 ± 0.08 mm and the “reduction of hair growth” value (submicromolar dose) was “over 50%”.
